The record followed here is patent publication US20240218022A1, “ANTI-VISTA MACROCYCLIC PEPTIDES AND COMPOSITIONS” (BRISTOL-MYERS SQUIBB COMPANY, priority 2022, published 2024).

Positions of bridges follow the written chain, without caps; N, C: chain ends. Non-standard residues stand in square brackets, D forms with d. Residues, ends and D or L forms follow the SMILES beside them. NMeW = CN[C@@H](Cc1c[nH]c2ccccc12)C(=O)O; 2Nal = N[C@@H](Cc1ccc2ccccc2c1)C(=O)O; NMeR = CN[C@@H](CCCNC(=N)N)C(=O)O; Cit = NC(=O)NCCC[C@H](N)C(=O)O; Ahp(2) = CCCCC[C@H](N)C(=O)O; NMeNle = CCCC[C@H](NC)C(=O)O; NMeV = CN[C@H](C(=O)O)C(C)C; NMeS = CN[C@@H](CO)C(=O)O; NHexGly = CCCCCCNCC(=O)O; Nle = CCCC[C@H](N)C(=O)O; Orn = NCCC[C@H](N)C(=O)O

The assay concerns the target T1, mouse VISTA (mVISTA) (Mus musculus, UniProt Q9D659).
T1 construct: expressed in transfected cells; host or cells: Human embryonic kidney 293T cells
T1 sequence (Q9D659 33-308): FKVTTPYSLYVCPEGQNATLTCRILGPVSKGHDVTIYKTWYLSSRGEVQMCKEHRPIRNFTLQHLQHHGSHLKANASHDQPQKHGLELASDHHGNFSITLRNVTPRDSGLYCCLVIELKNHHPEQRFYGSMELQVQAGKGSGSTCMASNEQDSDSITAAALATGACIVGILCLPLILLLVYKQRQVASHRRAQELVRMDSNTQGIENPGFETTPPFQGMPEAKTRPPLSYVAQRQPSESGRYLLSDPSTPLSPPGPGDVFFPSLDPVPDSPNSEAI
In words: Cell-Based Binding High-Content Assay For mVISTA (HC CBA mVISTA). The conditions noted are these: cell-based binding high-content assay, mVISTA; the 15th table; read-out: HC CBA mVISTA IC50. In short, it runs like this:
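293T cells expressing mouse VISTA, with compounds added either after seeding ("no wash") or before seeding and then washed out after 1 h. Biotinylated peptide 2 nM for 30 min at room temperature, then detection with Alexa 647–streptavidin. After fixation with Hoechst stain, plates were high-content imaged; IC50 from four-parameter logistic fit.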
Usually IC50 stands for the midpoint of a concentration-inhibition curve. Consider `CCCCCCN1CC(=O)N[C@@H](Cc2ccc(O)cc2)C(=O)N[C@@H](CCCCC)C(=O)N[C@@H](CC(N)=O)C(=O)N[C@@H](CCCNC(=N)N)C(=O)N(C)[C@@H](CCCC)C(=O)N[C@@H](CCCCC)C(=O)N2CCC[C@H]2C(=O)N[C@@H](C(C)C)C(=O)N[C@@H](C(C)C)C(=O)N[C@H](C(=O)NCC(=O)O)CSCC(=O)N[C@@H](Cc2ccc3ccccc3c2)C(=O)N[C@@H](Cc2c[nH]c3ccccc23)C(=O)N[C@@H](CC(=O)O)C1=O` [compound 1250] ({CH2CO}-[2Nal]WD[NHexGly]Y[Ahp(2)]NR[NMeNle][Ahp(2)]PVVCG-OH; thioether N-14), for which the half-inhibitory concentration (IC50) came out at 22.1 nM.
Under `CCCCCCN1CC(=O)N[C@@H](Cc2ccc(O)cc2)C(=O)N[C@@H](CCCCC)C(=O)N[C@@H](CC(N)=O)C(=O)N[C@@H](CCCNC(=N)N)C(=O)N(C)[C@@H](CCCC)C(=O)N[C@@H](CCCCC)C(=O)N2CCC[C@H]2C(=O)N[C@@H](C(C)C)C(=O)N[C@@H](CC(=O)O)C(=O)N[C@H](C(=O)NCC(=O)O)CSCC(=O)N[C@@H](Cc2ccc3ccccc3c2)C(=O)N[C@@H](Cc2c[nH]c3ccccc23)C(=O)N[C@@H](CC(=O)O)C1=O` [compound 1251] ({CH2CO}-[2Nal]WD[NHexGly]Y[Ahp(2)]NR[NMeNle][Ahp(2)]PVDCG-OH; thioether N-14) stands 12.5 nM; under `CCCCCCN1CC(=O)N[C@@H](Cc2ccc(O)cc2)C(=O)N[C@@H](CCCCC)C(=O)N[C@@H](CC(N)=O)C(=O)N[C@@H](CCCNC(=N)N)C(=O)N(C)[C@@H](CCCC)C(=O)N[C@@H](CCCCC)C(=O)N2CCC[C@H]2C(=O)N[C@@H](C(C)C)C(=O)N[C@@H](CO)C(=O)N[C@H](C(=O)NCC(=O)O)CSCC(=O)N[C@@H](Cc2ccc3ccccc3c2)C(=O)N[C@@H](Cc2c[nH]c3ccccc23)C(=O)N[C@@H](CC(=O)O)C1=O` [compound 1252] ({CH2CO}-[2Nal]WD[NHexGly]Y[Ahp(2)]NR[NMeNle][Ahp(2)]PVSCG-OH; thioether N-14), 6.4 nM; under `CCCCCCN1CC(=O)N[C@@H](Cc2ccc(O)cc2)C(=O)N[C@@H](CCCC)C(=O)N[C@@H](CC(N)=O)C(=O)N[C@@H](CCCNC(N)=O)C(=O)N(C)[C@@H](CCCC)C(=O)N[C@@H](CCCCC)C(=O)N2CCC[C@H]2C(=O)N[C@@H](C(C)C)C(=O)N[C@@H](CC(=O)O)C(=O)N[C@H](C(=O)NCC(=O)O)CSCC(=O)N[C@@H](Cc2ccc3ccccc3c2)C(=O)N[C@@H](Cc2c[nH]c3ccccc23)C(=O)N[C@@H](CC(=O)O)C1=O` [compound 1253] ({CH2CO}-[2Nal]WD[NHexGly]Y[Nle]N[Cit][NMeNle][Ahp(2)]PVDCG-OH; thioether N-14), 6.9 nM.
Regarding `CCCCCCN1CC(=O)N[C@@H](Cc2ccc(O)cc2)C(=O)N[C@@H](CCCCC)C(=O)N[C@@H](CC(N)=O)C(=O)N[C@@H](CCCNC(=N)N)C(=O)N(C)[C@@H](CCCC)C(=O)N[C@@H](CCCCC)C(=O)N2CCC[C@H]2C(=O)N[C@@H](C(C)C)C(=O)N[C@@H](CC(=O)O)C(=O)N[C@H](C(=O)N[C@@H](CO)C(N)=O)CSCC(=O)N[C@@H](Cc2ccc3ccccc3c2)C(=O)N[C@@H](Cc2c[nH]c3ccccc23)C(=O)N[C@@H](CC(=O)O)C1=O` [compound 1254] ({CH2CO}-[2Nal]WD[NHexGly]Y[Ahp(2)]NR[NMeNle][Ahp(2)]PVDCS-NH2; thioether N-14), the half-inhibitory concentration (IC50) came out at 15.7 nM.
For `CCCCCCN1CC(=O)N[C@@H](Cc2ccc(O)cc2)C(=O)N[C@@H](CCCC)C(=O)N[C@@H](CC(N)=O)C(=O)N[C@@H](CCCNC(=N)N)C(=O)N(C)[C@@H](CCCC)C(=O)N[C@@H](CCCCC)C(=O)N2CCC[C@H]2C(=O)N[C@@H](C(C)C)C(=O)N[C@@H](CC(=O)O)C(=O)N[C@H](C(=O)N[C@@H](CO)C(=O)O)CSCC(=O)N[C@@H](Cc2ccc3ccccc3c2)C(=O)N[C@@H](Cc2c[nH]c3ccccc23)C(=O)N[C@@H](CC(=O)O)C1=O` [compound 1255] ({CH2CO}-[2Nal]WD[NHexGly]Y[Nle]NR[NMeNle][Ahp(2)]PVDCS-OH; thioether N-14) the value was 13.1 nM; for `CCCCCCN1CC(=O)N[C@@H](Cc2ccc(O)cc2)C(=O)N[C@@H](CCCC)C(=O)N[C@@H](CC(=O)O)C(=O)N[C@@H](CCCN)C(=O)N(C)[C@@H](CCCC)C(=O)N[C@@H](CCCCC)C(=O)N2CCC[C@H]2C(=O)N[C@@H](C(C)C)C(=O)N[C@@H](CC(=O)O)C(=O)N[C@H](C(=O)N[C@@H](CO)C(N)=O)CSCC(=O)N[C@@H](Cc2ccc3ccccc3c2)C(=O)N[C@@H](Cc2c[nH]c3ccccc23)C(=O)N[C@@H](CC(=O)O)C1=O` [compound 1256] ({CH2CO}-[2Nal]WD[NHexGly]Y[Nle]D[Orn][NMeNle][Ahp(2)]PVDCS-NH2; thioether N-14), 12.9 nM.
For `CCCCCCN1CC(=O)N[C@@H](Cc2ccc(O)cc2)C(=O)N[C@@H](CCCC)C(=O)N[C@@H](CC(=O)O)C(=O)N[C@@H](CCCNC(=N)N)C(=O)N(C)[C@@H](CCCC)C(=O)N[C@@H](CCCCC)C(=O)N2CCC[C@H]2C(=O)N[C@@H](C(C)C)C(=O)N[C@@H](CC(=O)O)C(=O)N[C@H](C(=O)N[C@@H](CO)C(N)=O)CSCC(=O)N[C@@H](Cc2ccc3ccccc3c2)C(=O)N[C@@H](Cc2c[nH]c3ccccc23)C(=O)N[C@@H](CC(=O)O)C1=O` [compound 1257] ({CH2CO}-[2Nal]WD[NHexGly]Y[Nle]DR[NMeNle][Ahp(2)]PVDCS-NH2; thioether N-14) the value was 11.3 nM.
Under `CCCCCCN1CC(=O)N[C@@H](Cc2ccc(O)cc2)C(=O)N[C@@H](CCCC)C(=O)N[C@@H](CC(N)=O)C(=O)N[C@@H](CCCNC(=N)N)C(=O)N(C)[C@@H](CCCNC(=N)N)C(=O)N[C@@H](CCCCC)C(=O)N2CCC[C@H]2C(=O)N[C@@H](C(C)C)C(=O)N[C@@H](CC(=O)O)C(=O)N[C@H](C(=O)NCC(=O)O)CSCC(=O)N[C@@H](Cc2ccc3ccccc3c2)C(=O)N[C@@H](Cc2c[nH]c3ccccc23)C(=O)N[C@@H](CC(=O)O)C1=O` [compound 1258] ({CH2CO}-[2Nal]WD[NHexGly]Y[Nle]NR[NMeR][Ahp(2)]PVDCG-OH; thioether N-14) stands 12 nM; under `CCCCCCN1CC(=O)N[C@@H](Cc2ccc(O)cc2)C(=O)N[C@@H](CCCC)C(=O)N[C@@H](CC(N)=O)C(=O)N[C@@H](CCCNC(=N)N)C(=O)N(C)[C@@H](CO)C(=O)N[C@@H](CCCCC)C(=O)N2CCC[C@H]2C(=O)N[C@@H](C(C)C)C(=O)N[C@@H](CC(=O)O)C(=O)N[C@H](C(=O)NCC(=O)O)CSCC(=O)N[C@@H](Cc2ccc3ccccc3c2)C(=O)N[C@@H](Cc2c[nH]c3ccccc23)C(=O)N[C@@H](CC(=O)O)C1=O` [compound 1259] ({CH2CO}-[2Nal]WD[NHexGly]Y[Nle]NR[NMeS][Ahp(2)]PVDCG-OH; thioether N-14), 8 nM.
As for `CCCCCCN1CC(=O)N[C@@H](Cc2ccc(O)cc2)C(=O)N[C@@H](CCCC)C(=O)N[C@@H](CC(N)=O)C(=O)N[C@@H](CCCNC(=N)N)C(=O)N(C)[C@@H](C(C)C)C(=O)N[C@@H](CCCCC)C(=O)N2CCC[C@H]2C(=O)N[C@@H](C(C)C)C(=O)N[C@@H](CC(=O)O)C(=O)N[C@H](C(=O)NCC(=O)O)CSCC(=O)N[C@@H](Cc2ccc3ccccc3c2)C(=O)N[C@@H](Cc2c[nH]c3ccccc23)C(=O)N[C@@H](CC(=O)O)C1=O` [compound 1260] ({CH2CO}-[2Nal]WD[NHexGly]Y[Nle]NR[NMeV][Ahp(2)]PVDCG-OH; thioether N-14), the concentration for half-maximal inhibition (IC50) was found to be 9.4 nM.
For `CCCCCCN1CC(=O)N[C@@H](Cc2ccc(O)cc2)C(=O)N[C@@H](CCCC)C(=O)N[C@@H](CC(N)=O)C(=O)N[C@@H](CCCNC(=N)N)C(=O)N(C)[C@@H](Cc2c[nH]c3ccccc23)C(=O)N[C@@H](CCCCC)C(=O)N2CCC[C@H]2C(=O)N[C@@H](C(C)C)C(=O)N[C@@H](CC(=O)O)C(=O)N[C@H](C(=O)NCC(=O)O)CSCC(=O)N[C@@H](Cc2ccc3ccccc3c2)C(=O)N[C@@H](Cc2c[nH]c3ccccc23)C(=O)N[C@@H](CC(=O)O)C1=O` [compound 1261] ({CH2CO}-[2Nal]WD[NHexGly]Y[Nle]NR[NMeW][Ahp(2)]PVDCG-OH; thioether N-14) the value was 11.7 nM.
As to `CCCCCCN1CC(=O)N[C@@H](Cc2ccc(O)cc2)C(=O)N[C@@H](CC(C)C)C(=O)NCC(=O)N[C@@H](CCCNC(=N)N)C(=O)N[C@@H](Cc2ccc(O)cc2)C(=O)N[C@@H](CCCCC)C(=O)N2CCC[C@H]2C(=O)N[C@@H](C(C)C)C(=O)N[C@@H](CC(=O)O)C(=O)N[C@H](C(=O)NCC(=O)O)CSCC(=O)N[C@@H](Cc2ccc3ccccc3c2)C(=O)N[C@@H](Cc2c[nH]c3ccccc23)C(=O)N[C@@H](CC(=O)O)C1=O` [compound 1263] ({CH2CO}-[2Nal]WD[NHexGly]YLGRY[Ahp(2)]PVDCG-OH; thioether N-14), the IC50 came to 20 nM.
For `CCCCCCN1CC(=O)N[C@@H](Cc2ccc(O)cc2)C(=O)N[C@@H](CC(C)C)C(=O)NCC(=O)N[C@@H](CCCNC(=N)N)C(=O)N[C@@H](Cc2ccc(O)cc2)C(=O)N[C@@H](CCCCC)C(=O)N2CCC[C@H]2C(=O)N[C@@H](C(C)C)C(=O)N[C@@H](CC(=O)O)C(=O)N[C@H](C(=O)NCC(N)=O)CSCC(=O)N[C@@H](Cc2ccc3ccccc3c2)C(=O)N[C@@H](Cc2c[nH]c3ccccc23)C(=O)N[C@@H](CC(=O)O)C1=O` [compound 1264] ({CH2CO}-[2Nal]WD[NHexGly]YLGRY[Ahp(2)]PVDCG-NH2; thioether N-14) the value was 28.4 nM.
